The NIST ThermoML archive (doi:10.1021/je0502546)

Legend:
[1] = xn = mol fraction of the nth substance listed; details: 101 kPa, Liquid; for viscosity: Capillary tube (Ostwald / Ubbelohde) method
[2] = refractive index (Na D-line) (dimensionless); xn = mol fraction of the nth substance listed; details: 101 kPa, Liquid, Standard Abbe refractometry
[3] = refractive index (Na D-line) (dimensionless); details: 101.33 kPa, Liquid, Standard Abbe refractometry
[4] = 101 kPa, Liquid; for viscosity: Capillary tube (Ostwald / Ubbelohde) method

CCc1ccccc1 [ethylbenzene] + COc1ccccc1
x2 = 0
Details	mass density, [1] [kg/m3]	refractive index, [2]	viscosity, [1] [mPa·s]
293.15 K	866.95	1.4957	0.669
303.15 K	858.01	1.4902	0.596

CCCc1ccccc1 [propylbenzene]
Details	mass density, [4] [kg/m3]	refractive index, [3]	viscosity, [4] [mPa·s]
293.15 K	863.13	1.4916	0.855
303.15 K	854.71	1.4858	0.744

CCCc1ccccc1 [propylbenzene] + COc1ccccc1
Details	mass density, [1] [kg/m3]	refractive index, [2]	viscosity, [1] [mPa·s]
293.15 K, x2 = 0	863.13	1.4916	0.855
293.15 K, x2 = 0.1216	876.73	1.4944	0.857
293.15 K, x2 = 0.2422	890.73	1.4972	0.862
293.15 K, x2 = 0.3455	903.18	1.4996	0.874
293.15 K, x2 = 0.4531	916.62	1.5023	0.892
293.15 K, x2 = 0.5658	931.23	1.5051	0.915
293.15 K, x2 = 0.6574	943.52	1.5076	0.94
293.15 K, x2 = 0.7486	956.19	1.5101	0.971
293.15 K, x2 = 0.8349	968.57	1.5126	1.005
293.15 K, x2 = 0.916	980.65	1.515	1.042
303.15 K, x2 = 0	854.71	1.4858	0.744
303.15 K, x2 = 0.1216	868.36	1.4886	0.748
303.15 K, x2 = 0.2422	882.36	1.4914	0.752
303.15 K, x2 = 0.3455	894.78	1.4939	0.758
303.15 K, x2 = 0.4531	908.15	1.4966	0.77
303.15 K, x2 = 0.5658	922.67	1.4995	0.79
303.15 K, x2 = 0.6574	934.9	1.5019	0.812
303.15 K, x2 = 0.7486	947.46	1.5045	0.84
303.15 K, x2 = 0.8349	959.71	1.507	0.87
303.15 K, x2 = 0.916	971.62	1.5095	0.899

Cc1ccccc1 [toluene]
Details	mass density, [4] [kg/m3]	refractive index, [3]	viscosity, [4] [mPa·s]
293.15 K	866.88	1.4962	0.588
303.15 K	857.46	1.4914	0.523

Cc1ccccc1 [toluene] + COc1ccccc1
x2 = 0
Details	mass density, [1] [kg/m3]	refractive index, [2]	viscosity, [1] [mPa·s]
293.15 K	866.88	1.4962	0.588
303.15 K	857.46	1.4914	0.523
